Assay results as given in article PMC8222276 (Communications Biology, 2021).

How the values were obtained:
HUAECs = assay: cell proliferation (72 h) of HUAECs; assay type: cell-based, human; conditions: HUAEC
Protocol: (§1) Both endothelial cell lines and HCMs were seeded at a density of 2500 cells/well in a clear flat bottom 96-well plate (Corning, UK) and incubated at 37 °C in 5% CO2. After 24 h, cells were exposed to test compounds or vehicle, in complete endothelial cell growth media (HUVECs) or myocyte growth media (HCMs). Cells were incubated for a further 72 h at 37 °C in 5% CO2. After 72 h incubation, 5 μl of Cell Counting Kit–8 (CCK-8, Sigma, UK) was added to each well and cells were then incubated for another 2 h at 37 °C in 5% CO2 and in the dark[61]. The absorbance of each well was measured using a Mithras LB940 microplate reader with an excitation of 450 nm. The absorbance is directly proportional to the number of viable cells. Cell proliferation was calculated as a percentage of number of cells treated with vehicle alone.
(§2) All sample sizes were determined, and data analysed, in accordance with the guidelines described by Curtis M et al.[65]. All experiments were appropriately controlled using ‘system pathway’ agonists. If any of these pathway controls generated inappropriate responses, then the entire data set was removed from analysis. […] Data analysis for cAMP accumulation, Ca^2+i mobilisation, NO accumulation, pERK1/2 activation, and cell proliferation assays were performed in GraphPad Prism 8.4 (GraphPad Software, San Diego). Data were fitted to obtain concentration–response curves using either the three-parameter logistic equation using to obtain values of Emax and pEC50 or the operational model of agonism. Statistical differences were analysed using one-way ANOVA followed by Dunnett’s post-hoc (for comparisons amongst more than two groups) or unpaired Student’s t test with Welch’s correction (for comparison between two groups). To account for the day-to-day variation experienced from the cultured cells, we used the maximal level of cAMP accumulation from cells in response to 100 μM forskolin stimulation was used as a reference, 10 μM ionomycin for Ca^2+i assays, 10 μM phorbol 12-myristate 13-acetate (PMA) for pERK1/2 activation, 10 μM acetylcholine for NO production and 10 μM VEGF for cell proliferation. […] Where appropriate the operational model for receptor agonism[27] was used to obtain efficacy (τ) and equilibrium disassociation constant (KA) values. In both cases, this normalisation removes the variation due to differences in days but retains the variance for control values. The means of individual experiments were combined to generate the curves shown. Having obtained values for τ and KA these were then used to quantify signalling bias as the change in Log(τ/KA)[19],[28]. Error for this composite measure was propagated by applying Eq. 1.1 PooledSEM=(SEMA)^2+(SEMB)^2 Where, SEMA and SEMB are the standard error of measurement A and B.
(1 picture or pasted object on this page, not shown here)

[1] = target: T1, AM1 receptor (CLR-RAMP2) in HUVECs (Homo sapiens, UniProt O60895+Q16602); assay: total nitric oxide production in HUVECs; assay type: cell-based; conditions: HUVEC
T1 construct: HUVECs specifically express the AM1 receptor alone; host or cells: primary HUVECs
T1 sequence (Q16602 23-461): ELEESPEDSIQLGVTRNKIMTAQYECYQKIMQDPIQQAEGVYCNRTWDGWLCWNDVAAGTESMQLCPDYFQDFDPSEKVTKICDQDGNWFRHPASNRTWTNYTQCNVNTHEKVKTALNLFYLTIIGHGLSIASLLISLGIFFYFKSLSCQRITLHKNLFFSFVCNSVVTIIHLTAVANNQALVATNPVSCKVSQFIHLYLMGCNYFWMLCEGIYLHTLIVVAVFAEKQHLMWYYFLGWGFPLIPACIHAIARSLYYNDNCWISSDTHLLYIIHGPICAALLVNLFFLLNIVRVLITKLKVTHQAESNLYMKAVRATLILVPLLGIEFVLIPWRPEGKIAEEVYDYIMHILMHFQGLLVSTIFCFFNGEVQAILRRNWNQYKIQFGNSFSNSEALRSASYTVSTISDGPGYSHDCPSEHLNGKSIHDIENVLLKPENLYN
T1 sequence (O60895 43-175): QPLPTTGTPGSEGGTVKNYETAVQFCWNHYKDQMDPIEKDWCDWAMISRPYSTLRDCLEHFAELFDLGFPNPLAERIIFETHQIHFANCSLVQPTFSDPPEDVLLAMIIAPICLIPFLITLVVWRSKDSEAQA
Protocol: Data are analysed using a three-parameter non-linear regression curve or the operational model of receptor agonism. g–h Signalling bias plots were calculated as ∆Log(τ/KA) (g) or ∆∆Log(τ/KA) (h) for each agonist and for each signalling pathway. […] Solid arrows indicate known pathways. Dashed arrows represent possible pathways.
Endothelial cells and HCMs were cultured as above. 24 h prior to assay cells were plated on Costar 96-well black clear bottom plates at 40,000 cells/well. The assay was performed according to the manufacturer’s protocol. Briefly, cells pre-incubated with NO dye and assay buffer 1 (Fluorometric Nitric Oxide Assay Kit, Abcam, UK) for 30 min at 37 °C in 5% CO2. Any inhibitors requiring 30 min pre-treatment (YM/L-NAME/DMSO control) were added at this point. Ligand stimulation occurred immediately after this for 15 min at 37 °C in 5% CO2. Stain and ligand solution was removed, assay buffer II was added, and wells were read immediately. The absorbance was measured using a Tecan T200 (Thermo Fisher Scientific UK) reader with an excitation/emission of 540/590 nm. Endothelial cell responses were normalised to 10 μM acetylcholine. HCM responses were normalised to 10 μM isoproterenol[63],[64].
as §2

RAMP1-HUVECs = assay: cell proliferation (72 h) of RAMP1-HUVECs; assay type: cell-based, human; conditions: RAMP1-HUVEC
Protocol: (§3) Data are analysed using a three-parameter non-linear regression curve or the operational model of receptor agonism. g–h Signalling bias plots were calculated as ∆Log(τ/KA) (g) or ∆∆Log(τ/KA) (h) for each agonist and for each signalling pathway. […] All data represent mean ± SEM for n repeats.
as §1
All sample sizes were determined, and data analysed, in accordance with the guidelines described by Curtis M et al.[65]. All experiments were appropriately controlled using ‘system pathway’ agonists. If any of these pathway controls generated inappropriate responses, then the entire data set was removed from analysis.

[2] = target: T2, CGRP receptor (CLR-RAMP1) in RAMP1-HUVECs (Homo sapiens, UniProt O60894+Q16602); assay: cAMP accumulation in RAMP1-HUVECs; assay type: cell-based; conditions: RAMP1-HUVEC, 30 min, relative to 100 μM forskolin, mean ± SEM
T2 construct: biased agonism at the endogenous CLR in a physiological system; the open reading frame of RAMP1 into our HUVEC∆RAMP2 cell line; host or cells: HUVEC-∆RAMP2 (CRISPR-Cas9 RAMP2 knockout pool), lentiviral transduction, blasticidin selection
T2 sequence (Q16602 23-461): as the sequence (Q16602 23-461) above
T2 sequence (O60894 27-148): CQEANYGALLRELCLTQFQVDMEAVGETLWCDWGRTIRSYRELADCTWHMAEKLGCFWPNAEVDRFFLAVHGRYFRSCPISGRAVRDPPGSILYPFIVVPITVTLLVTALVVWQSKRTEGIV
Protocol: as §3
All primary cell lines were cultured as above. On the day of the experiment media was removed and cells washed with PBS, before being dissociated with Trypsin-EDTA 0.05% (Gibco, UK) and then resuspended in PBS/BSA (0.1%) (Sigma, UK). Cells were immediately plated for use in cAMP assay as per the manufacturer’s instructions, reagents used were provided by the LANCE® cAMP detection assay kit (PerkinElmer, Boston, MA, USA), in 384 well optiplates (PerkinElmer (Boston, MA, USA)) at 2000 cells/well in 5 μl aliquots. […] Cells were incubated with compound for 30 min prior to adding detection buffer[28],[60]. Plates were incubated for a further 60 min (room temperature) and then read on a plate reader (Mithras LB 940 microplate reader (Berthold technologies, Germany)). All responses were normalised to 100μM forskolin (Tocris, UK). Antagonist studies were performed in the same way through co-stimulation of the relevant concentration. Alongside control-treated cell. […]
All sample sizes were determined, and data analysed, in accordance with the guidelines described by Curtis M et al.[65]. […]

[3] = proliferation, 72 h, CCK-8, mean ± SEM
[4] = proliferation, 72 h, mean ± SEM of 3-6 data sets
[5] = proliferation, operational model, mean ± SEM
[6] = NO, operational model, mean ± SEM

Emax [2] [%]	SMILES	Transducer coefficient Log(τ/KA) (HUAECs; Growth, calculated from Table S1)	Emax (HUAECs; [3]) [%]	pEC50 (HUAECs; [4])	logτ (HUAECs; [5])	pKA (HUAECs; [5])	Emax [1] [%]	order of potencies for NO synthesis [1]	Transducer coefficient Log(τ/KA) ([1]; NO, calculated from Table S1)	logτ [1, 6]	pKA [1, 6]	Transducer coefficient Log(τ/KA) (RAMP1-HUVECs; Growth, calculated from Table S2)	promotion of growth (RAMP1-HUVECs; 72 h)	Emax (RAMP1-HUVECs; [3]) [%]	pEC50 (RAMP1-HUVECs; [4])	logτ (RAMP1-HUVECs; [5])	pKA (RAMP1-HUVECs; [5])
–	CSCC[C@H](NC(=O)[C@H](CC(C)C)NC(=O)[C@H](CCC(N)=O)NC(=O)[C@H](Cc1c[nH]c2ccccc12)NC(=O)[C@H](CC(C)C)NC(=O)[C@H](CCCNC(=N)N)NC(=O)[C@H](Cc1c[nH]cn1)NC(=O)[C@H](CO)NC(=O)[C@H](CC(C)C)NC(=O)[C@H](CC(N)=O)NC(=O)[C@H](CCC(N)=O)NC(=O)[C@@H](NC(=O)[C@H](CCC(N)=O)NC(=O)[C@@H]1CSSC[C@H](NC(=O)CNC(=O)[C@@H](NC(=O)[C@H](CCCNC(=N)N)NC(=O)[C@H](CC(C)C)NC(=O)[C@H](CC(C)C)NC(=O)[C@H](CCC(N)=O)NC(=O)[C@H](C)NC(=O)[C@H](CCC(N)=O)NC(=O)[C@@H](N)[C@@H](C)O)C(C)C)C(=O)N[C@@H](C(C)C)C(=O)N[C@@H](CC(C)C)C(=O)NCC(=O)N[C@@H]([C@@H](C)O)C(=O)N1)C(C)C)C(=O)NCC(=O)N1CCC[C@H]1C(=O)N[C@@H](C)C(=O)NCC(=O)N[C@@H](CCCNC(=N)N)C(=O)N[C@@H](CCC(N)=O)C(=O)N[C@@H](CC(=O)O)C(=O)N[C@@H](CO)C(=O)N[C@@H](C)C(=O)N1CCC[C@H]1C(=O)N[C@H](C(=O)N[C@@H](CC(=O)O)C(=O)N1CCC[C@H]1C(=O)N[C@@H](CO)C(=O)N[C@@H](CO)C(=O)N1CCC[C@H]1C(=O)N[C@@H](Cc1c[nH]cn1)C(=O)N[C@@H](CO)C(=O)N[C@@H](Cc1ccc(O)cc1)C(N)=O)C(C)C [AM2, adrenomedullin 2]	5.81±1.89	111.68±1.62	6.87±0.48	-1.10±0.26	6.91±1.87	82.1 ± 4.62	order of potencies AM2 > AM > CGRP	6.80±0.17	0.65±0.09	6.15±0.15	5.73±0.56	could also promote growth	201.29±11.45	5.85±0.17	0.71±0.34	5.02±0.44
39 ± 2.08	CC[C@H](C)[C@H](NC(=O)[C@H](CCC(N)=O)NC(=O)[C@H](Cc1c[nH]cn1)NC(=O)[C@H](C)NC(=O)[C@H](CC(C)C)NC(=O)[C@H](CCCCN)NC(=O)[C@H](CCC(N)=O)NC(=O)[C@@H](NC(=O)[C@@H](NC(=O)[C@@H]1CSSC[C@H](NC(=O)CNC(=O)[C@H](Cc2ccccc2)NC(=O)[C@H](CO)NC(=O)[C@H](CCCNC(=N)N)NC(=O)[C@H](CC(C)C)NC(=O)CNC(=O)[C@H](CCC(N)=O)NC(=O)[C@H](Cc2ccccc2)NC(=O)[C@H](CC(N)=O)NC(=O)[C@H](CC(N)=O)NC(=O)[C@H](CCSC)NC(=O)[C@H](CO)NC(=O)[C@H](CCC(N)=O)NC(=O)[C@H](CCCNC(=N)N)NC(=O)[C@@H](N)Cc2ccc(O)cc2)C(=O)N[C@@H](CCCNC(=N)N)C(=O)N[C@@H](Cc2ccccc2)C(=O)NCC(=O)N[C@@H]([C@@H](C)O)C(=O)N1)[C@@H](C)O)C(C)C)C(=O)N[C@@H](Cc1ccc(O)cc1)C(=O)N[C@@H](CCC(N)=O)C(=O)N[C@@H](Cc1ccccc1)C(=O)N[C@H](C(=O)N[C@@H](CC(=O)O)C(=O)N[C@@H](CCCCN)C(=O)N[C@@H](CC(=O)O)C(=O)N[C@@H](CCCCN)C(=O)N[C@@H](CC(=O)O)C(=O)N[C@@H](CC(N)=O)C(=O)N[C@H](C(=O)N[C@@H](C)C(=O)N1CCC[C@H]1C(=O)N[C@@H](CCCNC(=N)N)C(=O)N[C@@H](CO)C(=O)N[C@@H](CCCCN)C(=O)N[C@H](C(=O)N[C@@H](CO)C(=O)N1CCC[C@H]1C(=O)N[C@@H](CCC(N)=O)C(=O)NCC(=O)N[C@@H](Cc1ccc(O)cc1)C(N)=O)[C@@H](C)CC)C(C)C)[C@@H](C)O [AM, adrenomedullin]	–	–	–	–	–	–	–	–	–	–	–	–	–	–	–	–
